Tests used:
PC-3 cells = experiment: Growth inhibition of PC-3 cells derived from lung cancer, 72 h, methylene blue staining; type: cell-based
Method: (§1) After 24-hour incubation under the conditions of 37° C. and 5% CO2, 10 μl of the novel fat-soluble platinum complex was added in various concentrations and the PC-3 cells and SW-1116 cells were further cultured for 72 hours and 96 hours, respectively. Thereafter, the culture was drawn off from each well by using an aspirator, fixed with MeOH, then added with a 0.05% methylene blue/10 mM tris-(hydroxymethyl)aminomethanehydrochloric acid buffer solution (pH 8.5) at a rate of 100 μl/well and stained at room temperature for 30 minutes. Thereafter, each well was cleared of the staining solution by using an aspirator and washed three times with pure water. Then 3% hydrochloric acid solution was added at a rate of 200 μl/well, and after sealing, the culture was left at room temperature for about 24 hours and the pigment was extracted from the cells. The absorbance (A660) of each well at 660 nm was measured by a dynamic microplate reader, and the growth inhibition rate (%) at each concentration was calculated from the following equation. […] [formula]

SW-1116 cells = experiment: Growth inhibition of SW-1116 cells derived from colon cancer, 96 h, methylene blue staining; type: cell-based
Method: as §1

[1] = in words, prior art; cited from earlier work
[2] = in words, clinical use; cited from earlier work

CC(C)(CO)C(O)C(=O)[O-].CC(C)(CO)C(O)C(=O)[O-].NC1CCCCC1N.[Pt+2] [compound No. 9, cis-Bis[(S)-2,4-dihydroxy-3,3-dimethylbutyrato]-trans-(R,R)-1,2-diaminocyclohexane platinum (II)]
IC50 PC-3 (PC-3 cells): 0.45 µg/mL | IC50 SW-1116 (SW-1116 cells): 0.057 µg/mL

N.N.[Cl][Pt][Cl] [cis-Platin, cis-dichlorodiammine platinum (II), reference compound]
IC50 PC-3 (PC-3 cells): 0.40 µg/mL | IC50 SW-1116 (SW-1116 cells): 0.36 µg/mL | antitumor effect [1]: very excellent antitumor effect | side effects [2]: strong side effects such as renal toxicity and vomitting toxicity

CC(O)(CCO)CC(=O)[O-].CC(O)(CCO)CC(=O)[O-].N.N.[Pt+2] (stereo not drawn) [compound No. 12, cis-Bis(3,5-dihydroxy-3-methylvalerato)-diammine platinum (II)]
Solubility in water: > 100 mg/mL

CC(C)(CO)C(=O)[O-].CC(C)(CO)C(=O)[O-].N[C@@H]1CCCC[C@H]1N.[Pt+2] (relative stereo) [compound No. 10, cis-Bis(3-hydroxy-2,2-dimethylpropionato)-trans-1,2-diaminocyclohexane platinum (II)]
IC50 PC-3 (PC-3 cells): 0.50 µg/mL | IC50 SW-1116 (SW-1116 cells): 0.065 µg/mL

CC(O)(CCO)CC(=O)[O-].CC(O)(CCO)CC(=O)[O-].N[C@@H]1CCCC[C@H]1N.[Pt+2] (relative stereo) [compound No. 13, Cis-Bis(3,5-dihydroxy-3-methylvalerato)-trans-1,2-diaminocyclohexane platinum (II)]
IC50 PC-3 (PC-3 cells): 0.76 µg/mL | IC50 SW-1116 (SW-1116 cells): 0.085 µg/mL

CC(C)(CO)C([O-])C(=O)[O-].C[C@@H](CN)CCN.[Pt+2] (stereo in doubt) [compound No. 21, cis-[2-(2-Hydroxy-1,1-dimethylethyl)-glycolato-O,O']-(R)-1,4-diamino-2-methylbutane platinum (II)]
IC50 PC-3 (PC-3 cells): 0.53 µg/mL | IC50 SW-1116 (SW-1116 cells): 0.37 µg/mL | Solubility in water: > 100 mg/mL

CC(C)(CO)[C@@H](O)C(=O)NCCC(=O)[O-].CC(C)(CO)[C@@H](O)C(=O)NCCC(=O)[O-].N[C@@H]1CCCC[C@H]1N.[Pt+2] (stereo in doubt) [compound No. 17, cis-Bis[(R)-pantothenato]-trans-(R,R)-1,2-diaminocyclohexane platinum (II)]
IC50 PC-3 (PC-3 cells): 0.60 µg/mL | IC50 SW-1116 (SW-1116 cells): 0.082 µg/mL

CC(C)(CO)C(O)C(=O)[O-].CC(C)(CO)C(O)C(=O)[O-].CC(CN)CCN.[Pt+2] [compound No. 19, cis-Bis[(R)-2,4-dihydroxy-3,3-dimethylbutyrato]-(R)-1,4-diamino-2-methylbutane platinum (II)]
IC50 PC-3 (PC-3 cells): 0.40 µg/mL | IC50 SW-1116 (SW-1116 cells): 0.36 µg/mL

CC(C)(O)C(=O)[O-].CC(C)(O)C(=O)[O-].N[C@@H]1CCCC[C@H]1N.[Pt+2] (relative stereo) [compound No. 8, cis-Bis(2-hydroxy-2-methylpropionato)-trans-1,2-diaminocyclohexane platinum (II)]
IC50 PC-3 (PC-3 cells): 1.57 µg/mL | IC50 SW-1116 (SW-1116 cells): 0.21 µg/mL

CC(C)(CO)C([O-])C(=O)[O-].NC1CCCCC1N.[Pt+2] (stereo not drawn) [compound No. 18, cis-[2-(2-Hydroxy-1,1-dimethylethyl)-glycolato-O,O']-trans-1,2-diaminocyclohexane platinum (II)]
IC50 PC-3 (PC-3 cells): 2.03 µg/mL | IC50 SW-1116 (SW-1116 cells): 0.25 µg/mL

cis-Bis[(R)-2,4-dihydroxy-3,3-dimethylbutyrato]diammine platinum (II) [compound No. 1]
Solubility in water: > 100 mg/mL

CC(O)(CCO)CC(=O)[O-].CC(O)(CCO)CC(=O)[O-].NCC1(N)CCCCC1.[Pt+2] (stereo not drawn) [compound No. 15, cis-Bis(3,5-dihydroxy-3-methylvalerato)-1-amino-1-aminomethylcyclohexane platinum (II)]
IC50 PC-3 (PC-3 cells): 0.80 µg/mL | IC50 SW-1116 (SW-1116 cells): 0.14 µg/mL | Solubility in water: > 100 mg/mL

cis-Bis[(R)-2,4-dihydroxy-3,3-dimethylbutyrato]-trans-(R,R)-1,2-diaminocyclohexane platinum (II) [compound No. 5]
IC50 PC-3 (PC-3 cells): 0.60 µg/mL | IC50 SW-1116 (SW-1116 cells): 0.060 µg/mL | Solubility in water: > 100 mg/mL

CC(C)(CO)C(=O)[O-].CC(C)(CO)C(=O)[O-].C[C@@H](CN)CCN.[Pt+2] (stereo in doubt) [compound No. 20, cis-Bis(3-hydroxy-2,2-dimethylpropionato)(R)-1,4-diamino-2-methylbutane platinum (II)]
IC50 PC-3 (PC-3 cells): 0.35 µg/mL | IC50 SW-1116 (SW-1116 cells): 0.36 µg/mL | Solubility in water: > 20 mg/mL

CC(C)(CO)[C@@H](O)C(=O)[O-].CC(C)(CO)[C@@H](O)C(=O)[O-].NCC1(N)CCCCC1.[Pt+2] [compound No. 4, cis-Bis[(R)-2,4-dihydroxy-3,3-dimethylbutyrato]-1-amino-1-aminomethylcyclohexane platinum (II)]
IC50 PC-3 (PC-3 cells): 0.73 µg/mL | IC50 SW-1116 (SW-1116 cells): 0.37 µg/mL | Solubility in water: > 100 mg/mL
